Test results reported in patent US4034111A, “Compositions of and new uses for N-acylanilinobutyric acids” (Byk Gulden Lomberg Chemische Fabrik GmbH, priority 1974, dated 1977).
Like-named read-outs stand apart in the source and are kept apart here.

Columns and labels:
Pancreas secretion [1] = test: Pancreas secretion (rat), i.d. administration; assay type: in vivo; conditions: intraduodenal, as sodium salt; for ED (50% increase): Rattus norvegicus, read-out: Increase in pancreas secretion by 50 % maximum (dose); for minimal effective dose: read-out: Increase in pancreas secretion: significantly effective of [ ]
Experimental: (§1) 1. Pancreas secretion (rat and cat) was examined along the lines of the method described by C. J. Dockray [J. Physiol., 225, 679, (1972)] for the rat and of that described by R. M. Case et al [J. Physiol., 223, 669, (1972)] for the cat.
(§2) The pancreas secretion and the bile of narcotized rats (female, 250 to 300 g, stomachs not empty; narcosis: 5 ml/kg of a 25 % urethane solution= 1.25 g/kg i.m.) and cats (both sexes, stomachs empty, 3 to 4 kg; narcosis: laughing gas and 60 mg/kg i.p. chloralose and 120 mg/kg i.p. urethane; permanent infusion of 0.4 to 2 E/kg/hour secretine= 1 to 6 ml/animal/hour,pylorus ligature) were separately transferred to the outside. After an initial period of about 2 hours compounds to be examined were administered intravenously to some and intraduodenally to other animals (volume of injection rat/cat 1 ml/kg). The volume and, respectively, the protein content (amylase, lipase, trypsine) of the fraction for 30 minutes and 15 minutes, respectively, were determined by conventional methods (Boehringer Test Combination 15899).

stomach ulcers = test: Anti-ulcerogenity: suppression of acetylsalicylic acid-induced stomach ulcers in rats; assay type: in vivo, rat (Sprague-Dawley, female); conditions: 24 h, rat, oral, 30 min before 200 mg/kg acetylsalicylic acid, as sodium salt; for ED100: read-out: Suppression of the formation of stomach ulcers by 100 % (dose); for ED50: read-out: Suppression of the formation of stomach ulcers by 50% (dose)
Experimental: 2. Anti-ulcerogenity was determined according to the method described in German Offenlegungsschrift DT-OS 2,118,200. Female Sprague-Dawley rats weighing about 200 g were kept on empty stomach for 24 hours. Then the compounds to be tested were administered orally in the form of their sodium salts in aqueous solution. After 30 minutes 200 mg/kg acetylsalicyclic acid (in 10 ml/kg of an 1% tylose suspension) were administered to cause stomach ulcers. Control groups received the corresponding amount of water instead of the sodium salt solutions. The ulcus rate was determined microscopically 24 hours after the administration of acetylsalicyclic acid.

[2] = system: serum enzyme increase (GOT/GPT) after allyl alcohol; test: Anti-hepatotoxic action: liver damage due to allyl alcohol, serum enzymes GOT/GPT; assay type: in vivo, rat (Sprague-Dawley, female); conditions: rat, oral, as sodium salt, serum 18 hours after allyl alcohol; read-out: Anti-hepatotoxic action: inhibition of serum enzyme increase by 25 % (GOT/GPT), damage due to allyl alcohol (dose)
Experimental: (§3) 5. The determination of the anti-hepatotoxic and hepatotropic effect, respectively, was carried out by damaging the liver with allyl alcohol or galactosamine.
(a) Damaging due to allyl alcohol was carried out in accordance with the method of Renker et al. [Arzneimittelforschung, 22, 1009 (1972)] and of H. Rauen and Schriewer [Arzneimittelforschung, 21, 1194 (1971)]: female Sprague-Dawley-rats (250 to 300 g) received 3 ml/kg of 1.25 % allyl alcohol solution orally […] the compounds to be tested and the solvent (control) had also been administered orally. 18 hours after the damage due to allyl alcohol a blood sample was taken from the tail (0.5 to 0.7 ml) with slight ether narcosis. The serum enzymes GOT (glutamate oxalacetate transaminase) and GPT (glutamate pyruvate transminase) were determined with the help of the Boehringer Test Combination (No. 15955/56)-- micromethod.

[3] = system: serum enzyme increase (GOT/GPT) after galactosamine; test: Anti-hepatotoxic action: liver damage due to galactosamine, serum enzymes GOT/GPT; assay type: in vivo, rat (Sprague-Dawley, male); conditions: rat, oral, as sodium salt, serum 24 hours after 200 mg/kg d-galactosamine hydrochloride i.p.; read-out: Anti-hepatotoxic action: inhibition of serum enzyme increase by 25 % (GOT/GPT), damage due to galactosamine (dose)
Experimental: as §3
(b) Damaging, due to galactosamine (galactosamine hepatitis) was carried out in accordance with the method described in Arzneimittelforschung 23 Nr. 1a, 159 (1973): Male Sprague-Dawley rats (220 to 300 g) received 200 mg/kg d-galactosamine hydrochloride (Merck, Darmstadt, article no. 4085) intraperitoneally (injection volume 2 ml/kg) 1 hour after oral administration of the compounds to be tested. 24 hours after the damage due to galactosamine a blood sample was taken from the vena orbitalis with slight ether narcosis. The serum enzymes were determined as described under a.

Pancreas secretion [4] = test: Pancreas secretion (cat), pancreas liquid and protein (enzyme); assay type: in vivo; conditions: Felis catus, as sodium salt
Experimental: as §1, §2

heart force of the heart = test: Heart force (left ventricle pressure course) in narcotized cats; assay type: in vivo; conditions: Felis catus, iv; cat, i.v. administration, as sodium salt; read-out: Increase in heart force of the heart, effective of
Experimental: 3. The influence of the acylated anilinocarboxylic acids on heart force was determined along the lines of the method of W. Kroneberg et al. [Arzneimittelforschung, 22, 2 (1972)] by determination of the pressure course (isometrically) and pressure increase in the left heart ventricle upon intraveneous administration of the substance to narcotized cats.

[5] = system: circulation of blood in internal organs (liver, pancreas); test: Blood circulation through internal organs (liver, pancreas); assay type: in vivo; conditions: Felis catus, iv; cat, i.v. administration, as sodium salt; read-out: Increase in circulation of blood in internal organs (liver, pancreas), effective of
Experimental: 4. The blood circulation through the liver was determined by the arterial blood supply (Art. hepatica) along the lines of the method described by Scholtholt (Habilitationsschrift, faculty of medicine, University of Dusseldorf (1969) "Experimental studies with regard to the blood circulation through the liver").

SMILES	ED (50% increase) (Pancreas secretion [1])	minimal effective dose (Pancreas secretion [1])	ED100 (stomach ulcers)	ED25 [2]	ED25 [3]	ED (100% increase) (Pancreas secretion [4]; intraduodenal, i.d. administration, read-out: Increase in pancreas secretion by 100 % maximum: pancreas liquid (dose))	ED (100% increase) (Pancreas secretion [4]; intraduodenal, i.d. administration, read-out: Increase in pancreas secretion by 100 % maximum: protein (enzyme) (dose))	ED (100% increase) (Pancreas secretion [4]; iv, i.v. administration, read-out: Increase in pancreas secretion by 100 % maximum: protein (enzyme) (dose))	ED50 (stomach ulcers)	minimal effective dose (heart force of the heart)	minimal effective dose [5]
COc1ccc(N(CCCC(=O)O)C(=O)c2ccccc2)cc1 [(2), N-benzoyl-γ-(p-anisidino)butyric acid]	~0.2 mg/kg	0.05 mg/kg	1.5 mg/kg	5 to 10 mg/kg	~50 mg/kg						
COc1ccc(N(CCCC(=O)O)C(=O)c2ccc(Cl)cc2)cc1 [(3), N-(p-chlorobenzoyl)-γ-(p-anisidino)butyric acid]	1 to 5 mg/kg	0.05 mg/kg	~10 mg/kg	5 to 10 mg/kg	~20 mg/kg	~10 mg/kg	~1 mg/kg	< 10 mg/kg	1 to 5 mg/kg	1 mg/kg	1 to 5 mg/kg
CCOc1ccc(N(CCCC(=O)O)C(=O)c2ccc(Cl)cc2)cc1 [(4), N-(p-chlorobenzoyl)-γ-(p-phenetidino)butyric acid]	0.1 to 0.5 mg/kg	0.05 mg/kg	~15 mg/kg	~10 mg/kg	~10 mg/kg					1 mg/kg	1 to 5 mg/kg
COc1ccc(N(CCCC(=O)O)C(=O)c2ccc(Cl)cc2)cc1OC [(7), N-(p-chlorobenzoyl)-γ-(3,4-dimethoxyanilino)butyric acid]	~1 mg/kg	~0.1 mg/kg	~5 mg/kg	50 mg/kg	~20 mg/kg					1 to 5 mg/kg	1 mg/kg
Cc1cccc(C)c1N(CCCC(=O)O)C(=O)c1ccccc1Cl [(8), N-(o-chlorobenzoyl)-γ-(2,6-dimethylanilino)butyric acid]	~1 mg/kg	0.01 mg/kg	~30 mg/kg		~20 mg/kg					1 mg/kg	1 mg/kg
Cc1cccc(C)c1N(CCCC(=O)O)C(=O)c1ccc(Cl)cc1 [(9), N-(p-chlorobenzoyl)-γ-(2,6-dimethylanilino)butyric acid]	0.2 to 0.5 mg/kg	0.01 mg/kg	1 to 5 mg/kg	~10 mg/kg	10 to 20 mg/kg				0.5 to 1 mg/kg	1 to 5 mg/kg	1 mg/kg
O=C(O)CCCN(C(=O)c1ccc(Cl)cc1)c1ccc(O)cc1 [(11), N-(p-chlorobenzoyl)-γ-(p-hydroxyanilino)butyric acid]	~0.7 mg/kg	0.5 mg/kg		~10 mg/kg						~1 mg/kg	1 to 5 mg/kg
CC(=O)N(CCCC(=O)O)c1cccc(Cl)c1 [(12), N-acetyl-γ-(m-chloroanilino)butyric acid]	~1 mg/kg	0.1 mg/kg								2.5 mg/kg	
